Here are results for 10 molecules from patent US8614327B2 (Vertex Pharmaceuticals Incorporated, priority 2004, dated 2013).

A word on the EC50: it is the concentration at which the effect is half-maximal.

SMILES strings stand for the structures. A value given as a limit tells only on which side of the number the result lay.

This assay addresses T1, ΔF508-CFTR (Homo sapiens, UniProt P13569, DEL508-508).
T1 construct: expressed in transfected cells
In words: Membrane potential optical (FRET/VIPR) assay, identification of potentiator compounds. The assay is classed as cell-based. Conditions: Table 3, assay not given; for % Activity: relative efficacy. In outline:
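Double-addition potentiator screen: compound delivered in gluconate-substituted Cl^--free medium, membrane potential followed via CC2-DMPE/DiSBAC2(3) FRET on VIPR. Cells were ΔF508-CFTR-expressing NIH3T3 mouse fibroblasts, held 2 h at 37° C. then 24 h at 27° C. before assay.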

T1 sequence (P13569 with tags, fused parts or gaps DEL508-508): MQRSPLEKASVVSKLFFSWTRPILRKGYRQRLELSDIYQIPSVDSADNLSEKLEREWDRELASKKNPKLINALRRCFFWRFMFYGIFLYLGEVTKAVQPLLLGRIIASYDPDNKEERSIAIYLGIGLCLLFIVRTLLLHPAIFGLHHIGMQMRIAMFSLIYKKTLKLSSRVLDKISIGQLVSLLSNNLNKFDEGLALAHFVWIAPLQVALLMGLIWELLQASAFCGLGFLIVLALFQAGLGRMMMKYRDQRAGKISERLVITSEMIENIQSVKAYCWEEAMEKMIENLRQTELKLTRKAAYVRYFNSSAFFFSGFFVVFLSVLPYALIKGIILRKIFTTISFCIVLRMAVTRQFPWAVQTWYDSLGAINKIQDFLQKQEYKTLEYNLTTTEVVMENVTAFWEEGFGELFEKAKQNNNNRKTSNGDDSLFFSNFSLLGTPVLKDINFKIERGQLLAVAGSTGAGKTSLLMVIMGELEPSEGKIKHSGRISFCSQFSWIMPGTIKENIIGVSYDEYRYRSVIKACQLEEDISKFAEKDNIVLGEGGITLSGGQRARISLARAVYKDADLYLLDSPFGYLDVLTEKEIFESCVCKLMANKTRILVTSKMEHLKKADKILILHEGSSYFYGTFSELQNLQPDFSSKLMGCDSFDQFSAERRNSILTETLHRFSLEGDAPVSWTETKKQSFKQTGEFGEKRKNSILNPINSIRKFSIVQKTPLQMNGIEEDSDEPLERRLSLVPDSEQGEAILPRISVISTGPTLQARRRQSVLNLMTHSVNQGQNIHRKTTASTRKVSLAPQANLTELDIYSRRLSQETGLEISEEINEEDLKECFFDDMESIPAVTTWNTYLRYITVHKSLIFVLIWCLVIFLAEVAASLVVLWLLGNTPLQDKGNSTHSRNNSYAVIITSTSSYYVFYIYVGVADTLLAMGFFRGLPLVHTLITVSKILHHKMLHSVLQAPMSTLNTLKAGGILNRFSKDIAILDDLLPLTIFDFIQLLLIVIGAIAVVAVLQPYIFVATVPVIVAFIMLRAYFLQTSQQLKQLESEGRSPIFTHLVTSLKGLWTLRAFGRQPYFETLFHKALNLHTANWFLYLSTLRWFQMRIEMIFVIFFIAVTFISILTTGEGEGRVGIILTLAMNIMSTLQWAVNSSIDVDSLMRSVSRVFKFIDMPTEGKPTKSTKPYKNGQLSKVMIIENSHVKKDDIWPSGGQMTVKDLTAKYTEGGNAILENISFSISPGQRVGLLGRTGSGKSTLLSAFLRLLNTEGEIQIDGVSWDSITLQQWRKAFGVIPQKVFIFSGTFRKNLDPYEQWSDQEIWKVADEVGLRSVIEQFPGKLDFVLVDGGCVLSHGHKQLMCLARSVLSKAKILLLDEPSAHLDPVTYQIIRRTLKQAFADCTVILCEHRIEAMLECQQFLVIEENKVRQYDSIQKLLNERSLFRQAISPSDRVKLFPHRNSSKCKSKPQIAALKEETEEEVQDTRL

Take `CCc1cc(C#N)ccc1NC(=O)c1c[nH]c2ccccc2c1=O` [Compound 451, N-(4-cyano-2-ethyl-phenyl)-4-oxo-1H-quinoline-3-carboxamide]: the half-maximal effective concentration (EC50) was < 10 µM and the “% Activity” value is “++ (between 25% to 100%)”.

Take `O=C(Nc1ccc(N2CCC[C@@H]2CO)cc1C(F)(F)F)c1c[nH]c2ccccc2c1=O` [Compound 670, (R)-N-(4-(2-(hydroxymethyl)pyrrolidin-1-yl)-2-(trifluoromethyl)phenyl)-4-oxo-1,4-dihydroquinoline-3-carboxamide]: the half-maximal effective concentration (EC50) was < 10 µM and the “% Activity” value was “++ (between 25% to 100%)”.

In the case of `O=C(Nc1ccc(F)cc1)c1c[nH]c2ccccc2c1=O` [Compound 198, N-(4-fluorophenyl)-4-oxo-1H-quinoline-3-carboxamide], the EC50 was < 10 µM and the “% Activity” value is given as “++ (between 25% to 100%)”.

As to `CC(C)(C)c1cc2cc[nH]c2cc1NC(=O)c1c[nH]c2cccc(F)c2c1=O` [Compound 656, 5-fluoro-4-oxo-N-(5-tert-butyl-1H-indol-6-yl)-1H-quinoline-3-carboxamide], the EC50 was < 10 µM and the “% Activity” value is given as “++ (between 25% to 100%)”.

On to `CC(C)(C)c1cc(C(C)(C)C)c(NC(=O)c2c[nH]c3cc(O)ccc3c2=O)cc1O` [Compound 652, 7-hydroxy-N-(5-hydroxy-2,4-ditert-butyl-phenyl)-4-oxo-1H-quinoline-3-carboxamide], for which the EC50 was < 10 µM and the “% Activity” value is on record as “++ (between 25% to 100%)”.

On to `O=C(Nc1ccc(N2CCC(CO)CC2)cc1C(F)(F)F)c1c[nH]c2ccccc2c1=O` [Compound 668, N-[4-[4-(hydroxymethyl)-1-piperidyl]-2-(trifluoromethyl)phenyl]-4-oxo-1H-quinoline-3-carboxamide], for which the EC50 was < 10 µM and the “% Activity” value is listed as “++ (between 25% to 100%)”.

`Cc1ccc(C)c(NC(=O)c2c[nH]c3ccccc3c2=O)c1` [Compound 434, N-(2,5-dimethylphenyl)-4-oxo-1H-quinoline-3-carboxamide]: the concentration for a half-maximal effect (EC50) is < 10 µM and the “% Activity” value is “++ (between 25% to 100%)”.

In the case of `COC(=O)c1cccc(-c2cc(C(C)(C)C)c(O)cc2NC(=O)c2c[nH]c3ccccc3c2=O)c1` [Compound 231, 3-[4-hydroxy-2-[(4-oxo-1H-quinolin-3-yl)carbonylamino]-5-tert-butyl-phenyl]benzoic acid methyl ester], the EC50 was < 10 µM and the “% Activity” value is “++ (between 25% to 100%)”.

On to `O=C(Nc1cc(N2CCCCC2)cc(C(F)(F)F)c1)c1c[nH]c2ccccc2c1=O` [Compound 488, 4-oxo-N-[3-(1-piperidyl)-5-(trifluoromethyl)phenyl]-1H-quinoline-3-carboxamide], for which the EC50 was < 10 µM and the “% Activity” value is recorded as “++ (between 25% to 100%)”.

With `Cc1c[nH]c2cccc(NC(=O)c3c[nH]c4ccccc4c3=O)c12` [Compound 338, N-(3-methyl-1H-indol-4-yl)-4-oxo-1H-quinoline-3-carboxamide], the EC50 fell in the range of 10 to 25 µM and the “% Activity” value was “++ (between 25% to 100%)”.
